These results are taken from US5607929A, “Antiviral dibenzothiazepinone derivatives” (Glaxo Wellcome Inc., priority 1991, dated 1997).

In one assay the test system is HIV. Briefly: HIV (MT4 assay), in vitro antiviral activity. It is filed as cell-based.
Details: not given
Compound “4-fluorodibenzothiazepin-11(10H)-one-5,5-dioxide [15(iv)]” returned an IC50 of 1.8 µM.

Staying with this assay, now noted: Human immunodeficiency virus 1.
On to `COc1ccc2c(c1)S(=O)(=O)c1ccccc1C(=O)N2` [Example 22, 7-Methoxy-10,11-dihydrodibenzo[b,f][1,4]thiazepin-11-one-5,5-dioxide], for which 12.8 µM corresponded to half-maximal inhibition (IC50).

With `CN1C(=O)c2cccc(C(F)(F)F)c2Sc2ccccc21` [Example 10, 10-Methyl-4-trifluoromethyl-10,11-dihydrodibenzo[b,f][1,4]thiazepin-11-one], half-maximal inhibition (IC50) was put at 2.8 µM.

As to `CN1C(=O)c2cccc(F)c2Sc2ccccc21` [17(i), 4-Fluoro-10-methyl-10,11-dihydrobenzo[b,f][1,4] thiazepin-11-one], inhibition was half-maximal at 0.7 µM (IC50).

Regarding `CSc1cccc2c1Sc1ccccc1NC2=O` [Example 19, 4-Thiomethyl-10,11-dihydrodibenzo[b,f][1,4]thiazepin-11-one], the midpoint of inhibition, the IC50, lay at 2.3 µM.

Compound `O=C1Nc2ccccc2S(=O)(=O)c2ccccc21` [Example 5, 10,11-Dihydrodibenzo[b,f][1,4]thiazepin-11-one-5,5-dioxide] came in with an IC50 of 13 µM.

For `O=C1Nc2ccccc2Sc2c1cccc2C(F)(F)F` [Example 7, 4-Trifluoromethyl-10,11-dihydrodibenzo[b,f][1,4]thiazepin-11-one], the 50% inhibitory concentration (IC50) turned out to be 2.5 µM. Compared with the last compound, the IC50 is about 5.2-fold lower.

Turning to `O=C1Nc2ccccc2Sc2c(F)cccc21` [14(iv), 4-Fluoro-10,11-dihydrobenzo[b,f][1,4]thiazepin-11-one], the IC50 turned out to be 1.1 µM.
